Values of other authors as cited in patent publication US8809210B2, “Low roughness high surface-energy, anti-microbial fabric” (priority 2009, dated 2014).

Conditions: when covalently bonded to a surface

## CCCCCCCCCCCCCCCCCC[N+](C)(C)CCC[Si](OC)(OC)OC.[Cl-] [Si-QAC, 3-(Trimethoxysilyl)-propyldimethyloctadecyl ammonium chloride]
  antimicrobial activity: antimicrobial activity
